Measurements from the NIST ThermoML archive (doi:10.1021/je700672f).

Experiment: xn = mol fraction of the nth substance listed
Conditions: 101 kPa, Liquid

OCCOCCO [diethylene glycol] + O
Conditions	mass density [kg/m3]	viscosity [mPa·s]
283.15 K, x1 = 0.0255	1019.73	–
283.15 K, x1 = 0.0565	1040.15	–
283.15 K, x1 = 0.1027	1063.34	–
283.15 K, x1 = 0.1966	1091.18	–
283.15 K, x1 = 0.301	1106.34	–
283.15 K, x1 = 0.3989	1113.62	–
283.15 K, x1 = 0.5006	1117.88	–
283.15 K, x1 = 0.6011	1120.39	–
283.15 K, x1 = 0.7003	1121.98	–
283.15 K, x1 = 0.8051	1123.07	–
283.15 K, x1 = 0.892	1123.64	–
283.15 K, x1 = 1	1124.24	–
288.15 K, x1 = 0.0255	1018.61	–
288.15 K, x1 = 0.0565	1038.42	–
288.15 K, x1 = 0.1027	1060.91	–
288.15 K, x1 = 0.1966	1088.01	–
288.15 K, x1 = 0.301	1102.88	–
288.15 K, x1 = 0.3989	1110.06	–
288.15 K, x1 = 0.5006	1114.29	–
288.15 K, x1 = 0.6011	1116.8	–
288.15 K, x1 = 0.7003	1118.39	–
288.15 K, x1 = 0.8051	1119.47	–
288.15 K, x1 = 0.892	1120.05	–
288.15 K, x1 = 1	1120.65	–
293.15 K, x1 = 0.0255	1017.27	1.429
293.15 K, x1 = 0.0565	1036.53	2.223
293.15 K, x1 = 0.1027	1058.39	3.639
293.15 K, x1 = 0.1966	1084.81	7.452
293.15 K, x1 = 0.301	1099.4	12.6
293.15 K, x1 = 0.3989	1106.48	17.48
293.15 K, x1 = 0.5006	1110.68	22.22
293.15 K, x1 = 0.6011	1113.19	26
293.15 K, x1 = 0.7003	1114.79	29.46
293.15 K, x1 = 0.8051	1115.87	32.26
293.15 K, x1 = 0.892	1116.45	34.04
293.15 K, x1 = 1	1117.05	36.43
298.15 K, x1 = 0.0255	1015.72	–
298.15 K, x1 = 0.0565	1034.5	–
298.15 K, x1 = 0.1027	1055.77	–
298.15 K, x1 = 0.1966	1081.56	–
298.15 K, x1 = 0.301	1095.89	–
298.15 K, x1 = 0.3989	1102.89	–
298.15 K, x1 = 0.5006	1107.07	–
298.15 K, x1 = 0.6011	1109.59	–
298.15 K, x1 = 0.7003	1111.19	–
298.15 K, x1 = 0.8051	1112.27	–
298.15 K, x1 = 0.892	1112.86	–
298.15 K, x1 = 1	1113.47	–
303.15 K, x1 = 0.0255	1013.97	1.115
303.15 K, x1 = 0.0565	1032.33	1.674
303.15 K, x1 = 0.1027	1053.07	2.629
303.15 K, x1 = 0.1966	1078.28	5.148
303.15 K, x1 = 0.301	1092.36	8.358
303.15 K, x1 = 0.3989	1099.29	11.4
303.15 K, x1 = 0.5006	1103.45	14.15
303.15 K, x1 = 0.6011	1105.97	16.34
303.15 K, x1 = 0.7003	1107.58	18.48
303.15 K, x1 = 0.8051	1108.67	20
303.15 K, x1 = 0.892	1109.27	21.19
303.15 K, x1 = 1	1109.88	22.09
308.15 K, x1 = 0.0255	1011.83	–
308.15 K, x1 = 0.0565	1030.02	–
308.15 K, x1 = 0.1027	1050.27	–
308.15 K, x1 = 0.1966	1074.94	–
308.15 K, x1 = 0.301	1088.8	–
308.15 K, x1 = 0.3989	1095.67	–
308.15 K, x1 = 0.5006	1099.82	–
308.15 K, x1 = 0.6011	1102.36	–
308.15 K, x1 = 0.7003	1103.97	–
308.15 K, x1 = 0.8051	1105.06	–
308.15 K, x1 = 0.892	1105.68	–
308.15 K, x1 = 1	1106.29	–
313.15 K, x1 = 0.0255	1009.99	0.959
313.15 K, x1 = 0.0565	1027.57	1.298
313.15 K, x1 = 0.1027	1047.39	1.984
313.15 K, x1 = 0.1966	1071.56	3.716
313.15 K, x1 = 0.301	1085.22	5.847
313.15 K, x1 = 0.3989	1092.03	7.761
313.15 K, x1 = 0.5006	1096.18	9.506
313.15 K, x1 = 0.6011	1098.73	10.93
313.15 K, x1 = 0.7003	1100.35	12.22
313.15 K, x1 = 0.8051	1101.45	13.2
313.15 K, x1 = 0.892	1102.09	13.93
313.15 K, x1 = 1	1102.7	14.56
318.15 K, x1 = 0.0255	1007.73	–
318.15 K, x1 = 0.0565	1025.01	–
318.15 K, x1 = 0.1027	1044.41	–
318.15 K, x1 = 0.1966	1068.13	–
318.15 K, x1 = 0.301	1081.61	–
318.15 K, x1 = 0.3989	1088.37	–
318.15 K, x1 = 0.5006	1092.53	–
318.15 K, x1 = 0.6011	1095.08	–
318.15 K, x1 = 0.7003	1096.71	–
318.15 K, x1 = 0.8051	1097.83	–
318.15 K, x1 = 0.892	1098.49	–
318.15 K, x1 = 1	1099.11	–
323.15 K, x1 = 0.0255	1005.37	0.754
323.15 K, x1 = 0.0565	1022.33	1.031
323.15 K, x1 = 0.1027	1041.36	1.545
323.15 K, x1 = 0.1966	1064.65	2.783
323.15 K, x1 = 0.301	1077.97	4.231
323.15 K, x1 = 0.3989	1084.69	5.509
323.15 K, x1 = 0.5006	1088.85	6.694
323.15 K, x1 = 0.6011	1091.42	7.635
323.15 K, x1 = 0.7003	1093.07	8.477
323.15 K, x1 = 0.8051	1094.21	9.115
323.15 K, x1 = 0.892	1094.88	9.635
323.15 K, x1 = 1	1095.51	10.03
328.15 K, x1 = 0.0255	1002.86	–
328.15 K, x1 = 0.0565	1019.53	–
328.15 K, x1 = 0.1027	1038.21	–
328.15 K, x1 = 0.1966	1061.13	–
328.15 K, x1 = 0.301	1074.29	–
328.15 K, x1 = 0.3989	1080.98	–
328.15 K, x1 = 0.5006	1085.16	–
328.15 K, x1 = 0.6011	1087.74	–
328.15 K, x1 = 0.7003	1089.41	–
328.15 K, x1 = 0.8051	1090.57	–
328.15 K, x1 = 0.892	1091.26	–
328.15 K, x1 = 1	1091.91	–
333.15 K, x1 = 0.0255	1000.22	0.62
333.15 K, x1 = 0.0565	1016.62	0.849
333.15 K, x1 = 0.1027	1034.99	1.236
333.15 K, x1 = 0.1966	1057.55	2.147
333.15 K, x1 = 0.301	1070.58	3.202
333.15 K, x1 = 0.3989	1077.25	4.103
333.15 K, x1 = 0.5006	1081.43	4.917
333.15 K, x1 = 0.6011	1084.04	5.534
333.15 K, x1 = 0.7003	1085.74	6.12
333.15 K, x1 = 0.8051	1086.93	6.492
333.15 K, x1 = 0.892	1087.63	6.874
333.15 K, x1 = 1	1088.3	7.22
338.15 K, x1 = 0.0255	997.46	–
338.15 K, x1 = 0.0565	1013.61	–
338.15 K, x1 = 0.1027	1031.68	–
338.15 K, x1 = 0.1966	1053.92	–
338.15 K, x1 = 0.301	1066.84	–
338.15 K, x1 = 0.3989	1073.49	–
338.15 K, x1 = 0.5006	1077.69	–
338.15 K, x1 = 0.6011	1080.33	–
338.15 K, x1 = 0.7003	1082.06	–
338.15 K, x1 = 0.8051	1083.27	–
338.15 K, x1 = 0.892	1083.99	–
338.15 K, x1 = 1	1084.68	–
343.15 K, x1 = 0.0255	994.57	0.527
343.15 K, x1 = 0.0565	1010.51	0.71
343.15 K, x1 = 0.1027	1028.29	1.011
343.15 K, x1 = 0.1966	1050.24	1.703
343.15 K, x1 = 0.301	1063.06	2.514
343.15 K, x1 = 0.3989	1069.69	3.15
343.15 K, x1 = 0.5006	1073.93	3.731
343.15 K, x1 = 0.6011	1076.59	4.217
343.15 K, x1 = 0.7003	1078.36	4.617
343.15 K, x1 = 0.8051	1079.6	4.863
343.15 K, x1 = 0.892	1080.34	5.121
343.15 K, x1 = 1	1081.05	5.369
348.15 K, x1 = 0.0255	991.57	–
348.15 K, x1 = 0.0565	1007.27	–
348.15 K, x1 = 0.1027	1024.84	–
348.15 K, x1 = 0.1966	1046.51	–
348.15 K, x1 = 0.301	1059.24	–
348.15 K, x1 = 0.3989	1065.88	–
348.15 K, x1 = 0.5006	1070.14	–
348.15 K, x1 = 0.6011	1072.84	–
348.15 K, x1 = 0.7003	1074.63	–
348.15 K, x1 = 0.8051	1075.91	–
348.15 K, x1 = 0.892	1076.67	–
348.15 K, x1 = 1	1077.4	–
353.15 K, x1 = 0.0255	988.5	0.465
353.15 K, x1 = 0.0565	1004.07	0.606
353.15 K, x1 = 0.1027	1021.3	0.848
353.15 K, x1 = 0.1966	1042.72	1.392
353.15 K, x1 = 0.301	1055.38	2.043
353.15 K, x1 = 0.3989	1062.02	2.502
353.15 K, x1 = 0.5006	1066.32	2.942
353.15 K, x1 = 0.6011	1069.05	3.283
353.15 K, x1 = 0.7003	1070.89	3.593
353.15 K, x1 = 0.8051	1072.2	3.818
353.15 K, x1 = 0.892	1072.99	4.024
353.15 K, x1 = 1	1073.74	4.139
